Data taken from PubChem BioAssay AID328 (DTP/NCI, 2004).
“And” between values parts separate entries of the source, which are not always exact repeats. Identical values can stand only once. Inconclusive results and toxic doses are left out. The calls were made as follows: active = survival T/C of 150% or more; inactive = T/C below 125% in these data.

Tested on: BDF1 mice, P388 leukemia ip, median survival T/C
Assay: NCI In Vivo Anticancer Drug Screen. Data for tumor model P388 Leukemia (intraperitoneal) in B6D2F1 (BDF1) mice
Conditions: endpoint: median survival time, higher = longer survival
Procedure, shortened: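 T/C = treated-group survival ÷ vehicle-control survival; tumour transplanted into mice before dosing.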

[1] = dose: 25.0 mg/kg/injection, schedule: Q04DX003 (ip), vehicle: saline with Tween-80
[2] = dose: 50.0 mg/kg/injection, schedule: Q04DX003 (ip), vehicle: saline

Measured: T/C

N#Cc1ccccc1NN=Nc1ccccc1-c1nc(N)nc(N)n1
inactive: dose: 12.0 mg/kg/injection, schedule: Q04DX003 (ip), vehicle: saline with Tween-80 115 % of control | dose: 12.0 mg/kg/injection, schedule: Q04DX003 (ip), vehicle: saline 108 % of control | dose: 25.0 mg/kg/injection, schedule: Q01DX009 (ip), vehicle: Klucel (hydroxypropylcellulose) (HPC) 100 % of control | dose: 25.0 mg/kg/injection, schedule: Q04DX003 (ip), vehicle: Klucel (hydroxypropylcellulose) (HPC) 104 % of control | [1] 105 % of control | dose: 25.0 mg/kg/injection, schedule: Q04DX003 (ip), vehicle: saline 112 % of control | dose: 35.0 mg/kg/injection, schedule: Q01DX009 (ip), vehicle: Klucel (hydroxypropylcellulose) (HPC) 100 % of control | dose: 35.0 mg/kg/injection, schedule: Q04DX003 (ip), vehicle: Klucel (hydroxypropylcellulose) (HPC) 95 % of control | dose: 50.0 mg/kg/injection, schedule: Q01DX009 (ip), vehicle: Klucel (hydroxypropylcellulose) (HPC) 90 % of control | dose: 50.0 mg/kg/injection, schedule: Q04DX003 (ip), vehicle: Klucel (hydroxypropylcellulose) (HPC) 104 % of control | dose: 50.0 mg/kg/injection, schedule: Q04DX003 (ip), vehicle: saline with Tween-80 115 % of control | [2] 116 % of control | dose: 75.0 mg/kg/injection, schedule: Q01DX009 (ip), vehicle: Klucel (hydroxypropylcellulose) (HPC) 90 % of control and 95 % of control | dose: 75.0 mg/kg/injection, schedule: Q04DX003 (ip), vehicle: Klucel (hydroxypropylcellulose) (HPC) 95 % of control | dose: 100.0 mg/kg/injection, schedule: Q01DX009 (ip), vehicle: Klucel (hydroxypropylcellulose) (HPC) 122 % of control

O=C(O)CCCCCCc1ccc2ccccc2n1
inactive: dose: 50.0 mg/kg/injection, schedule: Q01DX009 (ip), vehicle: other 105 % of control | dose: 100.0 mg/kg/injection, schedule: Q01DX009 (ip), vehicle: other 117 % of control | dose: 200.0 mg/kg/injection, schedule: Q01DX009 (ip), vehicle: other 114 % of control

CC(=O)Nc1cc(C)no1
inactive: dose: 100.0 mg/kg/injection, schedule: Q01DX009 (ip), vehicle: saline 90 % of control | dose: 100.0 mg/kg/injection, schedule: Q04DX003 (ip), vehicle: saline 109 % of control | dose: 200.0 mg/kg/injection, schedule: Q01DX009 (ip), vehicle: saline 95 % of control | dose: 200.0 mg/kg/injection, schedule: Q04DX003 (ip), vehicle: saline 109 % of control | dose: 400.0 mg/kg/injection, schedule: Q01DX009 (ip), vehicle: saline 100 % of control | dose: 400.0 mg/kg/injection, schedule: Q04DX003 (ip), vehicle: saline 104 % of control

Clc1nc2ccccc2nc1CI
inactive: dose: 1.8 mg/kg/injection, schedule: Q01DX009 (ip), vehicle: saline 118 % of control | dose: 2.7 mg/kg/injection, schedule: Q01DX009 (ip), vehicle: saline 122 % of control | dose: 8.75 mg/kg/injection, schedule: Q04DX003 (ip), vehicle: saline 113 % of control | dose: 12.5 mg/kg/injection, schedule: Q01DX009 (ip), vehicle: saline with Tween-80 118 % of control | dose: 12.5 mg/kg/injection, schedule: Q01DX009 (ip), vehicle: saline 90 % of control | dose: 12.5 mg/kg/injection, schedule: Q04DX003 (ip), vehicle: saline with Tween-80 113 % of control | dose: 17.5 mg/kg/injection, schedule: Q04DX003 (ip), vehicle: saline 121 % of control | [1] 118 % of control | dose: 35.0 mg/kg/injection, schedule: Q04DX003 (ip), vehicle: saline 113 % of control | [2] 113 % of control

Cc1ccc([N+](=O)[O-])cc1NC(=O)SCCOC(=O)COc1ccc(Cl)cc1
inactive: dose: 100.0 mg/kg/injection, schedule: Q04DX003 (ip), vehicle: saline with Tween-80 95 % of control | dose: 200.0 mg/kg/injection, schedule: Q04DX003 (ip), vehicle: saline with Tween-80 100 % of control | dose: 400.0 mg/kg/injection, schedule: Q04DX003 (ip), vehicle: saline with Tween-80 109 % of control
